Assay results taken from patent US4971964A, “Pyridine derivatives” (priority 1988, dated 1990).

Columns and labels:
[1] = molecular target: T1, thromboxane synthase (TXA2 synthase), bovine platelet microsome (Bos taurus, UniProt Q2KIG5); assay: Test on Inhibition of TXA2 Biosynthesis (bovine platelet microsome, TXB2 by radioimmunoassay); assay type: biochemical; settings: for IC50: bovine platelet microsome, pH 7.4, prostaglandin H2 substrate
T1 construct: bovine platelet microsome; from tissue; host or cells: bovine platelets (microsome)
T1 sequence (Q2KIG5 1-533): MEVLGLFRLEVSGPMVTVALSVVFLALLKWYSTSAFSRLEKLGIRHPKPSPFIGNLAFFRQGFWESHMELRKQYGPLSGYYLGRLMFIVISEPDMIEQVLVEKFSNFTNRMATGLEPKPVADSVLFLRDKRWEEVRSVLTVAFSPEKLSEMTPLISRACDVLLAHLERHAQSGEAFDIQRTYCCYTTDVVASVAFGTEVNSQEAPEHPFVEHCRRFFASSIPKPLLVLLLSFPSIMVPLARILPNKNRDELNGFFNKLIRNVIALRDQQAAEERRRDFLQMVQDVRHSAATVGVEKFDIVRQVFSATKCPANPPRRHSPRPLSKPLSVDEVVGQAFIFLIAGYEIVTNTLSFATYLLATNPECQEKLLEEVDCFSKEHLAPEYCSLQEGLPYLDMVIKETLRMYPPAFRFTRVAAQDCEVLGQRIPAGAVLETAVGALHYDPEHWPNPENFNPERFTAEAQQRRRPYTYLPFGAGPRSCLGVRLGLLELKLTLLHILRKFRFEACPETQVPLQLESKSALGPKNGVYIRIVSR
Experimental: A mixture of 70 μl of bovine platelet microsome [protein: 40 μg; 100 mM tris-HCl buffer (pH=7.4)] and 10 μl of a test compound solution (100 mM tris-HCl buffer containing 10% methanol) was allowed to stand at 0° C. for 5 minutes, and 20 μl of a prostaglandin H2 solution (100 mM tris-HCl buffer supplemented with acetone containing 0.1 nmol of prostaglandin H2) was added thereto as a substrate.
The amount of thromboxane B2 (TXB2) (stable degradation product of TXA2) produced in the system was determined by radioimmunoassay [F. A. Fitzpatrick et al., Methods in Enzymology, Vol. 86, p.286 (1982)].
Inhibition of TXB2 synthesis was evaluated by IC50 (50% inhibitory concentration) or percent inhibition as calculated from equation described below, and the results obtained are shown in Table 1. [formula]

dd male mice = assay: Acute Toxicity Test (minimum lethal dose, MLD); assay type: in vivo; settings: dd male mice, mortality after 7 days
Experimental: A test compound was given to dd male mice weighing 20±1 g (3 mice per group) per os. (p.o.; 300 mg/kg) or intraperitoneally (i.p.; 100 mg/kg). The mortality after 7 days from the administration was considered to determine the minimum lethal dose (MLD).

[2] = tested on: silver nitrate-induced arteriothromboembolia in male Wistar-Shizuoka rats; assay: Test on Inhibition of Silver Nitrate-Induced Arteriothromboembolia in Rats; assay type: in vivo; settings: for Number of Obstruction Case/Number of Experiments: control 23/26; for Percent Obstruction: control 88%
Text: Male Wistar -Shizuoka rats weighing 270±20 g were anesthetized with urethane (1.5 g/kg) intraperitoneally. Each animal was fixed on its back, and a venous cannula and an arterial cannula were inserted into the left carotid vein and the left femoral artery, respectively. An abdominal incision was made, the intestinal tract was put aside so that the descending abdominal aorta could be seen, the surrounding connective tissues were removed, the descending aorta was detached to a length of about 1 cm, and the detached descending aorta was put on a globe of 8 cm in diameter. A solvent (0.1 ml; physiological saline containing 0.05N sodium hydroxide) or a drug solution (0.1 ml) in the solvent was injected via the cannulated carotid vein per 100 g of body weight. Three minutes later, a 30% silver nitrate aqueous solution was dropped on the detached descending abdominal aorta. Five minutes later, the globe was removed, and the affected site was washed three times with physiological saline to stop the reaction. After the elapse of 30 minutes from the stopping of the reaction, the blood pressure of the femoral artery was measured, and the pressure fall was taken as an indication of obstruction of the descending arterial. Significance of the difference in degree of the obstruction between the control group (only the solvent was administered) and the test group was assayed by X^2 -assay.

| SMILES | inhibition at 10 µM [1] [%] | Acute Toxicity (MLD) ip (dd male mice) [mg/kg] | Acute Toxicity (MLD) po (dd male mice) [mg/kg] | IC50 [1] [nM] | further results |
| --- | --- | --- | --- | --- | --- |
| O=C(O)CCCCCC1c2ccccc2NC(=O)c2cnccc21 (stereo not drawn) [Compound I-21, 5-(5-Carboxypentyl)-5,11-dihydropyrido[3,4-c][1]benzazepin-11(10H)-one] | 47 | > 100 | > 300 | – | – |
| CN1C(=O)c2cnccc2/C(=C\CCCCC(=O)O)c2ccccc21 [Compound I-20E, (E)-5-(5-Carboxypentylidene)-10-methyl-5,11-dihydropyrido[3,4-c][1]benzazepin-11(10H)-one] | 10 | > 100 | > 300 | – | – |
| O=C(O)CCCC/C=C1\c2ccccc2NC(=O)c2ccncc21 [Compound I-10E, (E)-11-(5-Carboxypentylidene)-5,11-dihydropyrido[4,3-c][1]benzazepin-5(6H)-one] | – | > 100 | > 300 | 21 | – |
| CN1C(=O)c2cnccc2/C(=C/CCCCC(=O)O)c2ccccc21 [Compound I-20Z, (Z)-5-(5-carboxypentylidene)-10-methyl-5,11-dihydropyrido[3,4-c][1]benzazepin-11(10H)-one] | -23 | > 100 | > 300 | – | – |
| COC1=Nc2ccncc2/C(=C\CCCCC(=O)O)c2ccccc21 [Compound I-13Z, (Z)-11-(5-carboxypentylidene)-6-methoxy-11H-pyrido[4,3-c][2]benzazepin] | – | > 100 | > 300 | 3.5 | – |
| C/C(=C\c1ccc(Cc2cccnc2)cc1)C(=O)O [OKY-1581, reference compound] | – | – | – | – | Number of Obstruction Case/Number of Experiments ([2]; 0.3 mg/kg i.v.): 5/5; Percent Obstruction ([2]; 0.3 mg/kg i.v.): 100%; Number of Obstruction Case/Number of Experiments ([2]; 1.0 mg/kg i.v.): 4/6; Percent Obstruction ([2]; 1.0 mg/kg i.v.): 67%; Number of Obstruction Case/Number of Experiments ([2]; 3.0 mg/kg i.v.): 0/3; Percent Obstruction ([2]; 3.0 mg/kg i.v.): 0% |
| O=C(O)CCCC/C=C1/c2cnccc2NC(=O)c2ccccc21 [Compound I-14E, (E)-11-(5-Carboxypentylidene)-6,11-dihydropyrido[4,3-c][2]benzazepin-6(5H)-one] | – | > 100 | > 300 | 22 | – |
| O=C(O)CCCC/C=C1\c2cnccc2C(=O)N(Cc2ccccc2)c2ccccc21 [Compound I-11Z, (Z)-6-benzyl-11-(5-carboxypentylidene)-5,11-dihydropyrido[4,3-c][1]benzazepin-5(6H)-one] | – | > 100 | > 300 | 41 | – |
| COc1ccc2c(c1)C(=CCCCCC(=O)O)c1cnccc1C(=O)N2C [Compound I-3, 11-(5-Carboxypentylidene)-9-methoxy-6-methyl-5,11-dihydropyrido-[4,3-c][1]benzazepin-5(6H)-one] | – | > 100 | > 300 | 400 | – |
| O=C(O)CCCCC=C1c2cc(Br)ccc2NC(=O)c2ccncc21 [Compound I-1, 9-Bromo-11-(5-carboxypentylidene)-5,11-dihydropyrido-[4,3-c][1]benzazepin-5(6H)-one] | – | > 100 | > 300 | 32 | – |
| CSC1=Nc2ccccc2C(=CCCCCC(=O)O)c2cnccc21 [Compound I-6, 11-(5-Carboxypentylidene)-5-thiomethyl-11(H)-pyrido-[4,3-c][1]benzazpin] | – | > 100 | > 300 | 5 | – |
| O=C(O)CCCC/C=C1\c2cnccc2NC(=O)c2ccccc21 [Compound I-14Z, (Z)-11-(5-Carboxypentylidene)-6,11-dihydropyrido[4,3-c][2]benzazepin-6(5H)-one] | – | > 100 | > 300 | 451 | – |
| O=C(O)CCCCC=C1c2ccncc2CNc2ccccc21 [Compound I-23, 5-(5-carboxypentylidene)-5H-10,11-dihydropyrido[3,4-c][1]benzazepin] | 27 | > 100 | > 300 | – | – |
| O=C(O)CCCC/C=C1\c2ccccc2NC(=O)c2cnccc21 [Compound I-19Z, (Z)-5-(5-carboxypentylidene)-5,11-dihydropyrido[3,4-c][1]benzazepin-11(10H)-one] | 8 | > 100 | > 300 | – | – |
| CN1C(=O)c2ccncc2/C(=C/CCCCC(=O)O)c2ccccc21 [Compound I-12E, (E)-11-(5-Carboxypentylidene)-6-methyl-5,11-dihydropyrido[4,3-c][1]benzazepin-5(6H)-one] | – | > 100 | > 300 | 20 | – |
| C/C=C/C1=Cc2ccccc2/C(=C/CCCCC(=O)O)c2cnccc21 [Compound I-7, (Z)-11-(5-Carboxypentylidene)-5-[(E)-1-propen-1-yl]-(H)-pyrido[3,4-b]benzcycloheptene] | – | > 100 | > 300 | 21 | – |
| CSC1Nc2ccccc2C(=CCCCCC(=O)O)c2ccncc21 (stereo not drawn) [Compound I-22, 5-(5-Carboxypentylidene)-11-thiomethyl-5H-10,11-dihydropyrido[3,4-c][1]benzazepin] | 27 | > 100 | > 300 | – | – |
| Cc1cccc2c1NC(=O)c1ccncc1C2=CCCCCC(=O)O [Compound I-2, 11-(5-Carboxypentylidene)-7-methyl-5,11-dihydropyrido-[4,3-c][1]benzazepin-5(6H)-one] | – | > 100 | > 300 | – | inhibition at 0.1 µM ([1]; 0.1 μM (footnote *), read-out: Inhibition of TXA2 Biosynthesis, Percent inhibition at 0.1 μM): 41% |
| O=C(O)CCCC=C1c2ccccc2NC(=O)c2ccncc21 [Compound I-4, 11-(4-Carboxybutylidene)-5,11-dihydropyrido[4,3-c][1]-benzazepin-5(6H)-one] | – | > 100 | > 300 | 250 | – |
| O=C(O)CCCC/C=C(\c1ccccc1)c1cccnc1 [CV-4151, reference compound] | – | – | – | – | Number of Obstruction Case/Number of Experiments ([2]; 0.3 mg/kg i.v.): 4/6; Percent Obstruction ([2]; 0.3 mg/kg i.v.): 67%; Number of Obstruction Case/Number of Experiments ([2]; 1.0 mg/kg i.v.): 4/8; Percent Obstruction ([2]; 1.0 mg/kg i.v.): 50%; Number of Obstruction Case/Number of Experiments ([2]; 3.0 mg/kg i.v.): 1/5; Percent Obstruction ([2]; 3.0 mg/kg i.v.): 20% |
